Reference: patent US20180085371A1, “COMBINATION OF PANOBINOSTAT AND RUXOLITINIB IN THE TREATMENT OF CANCER SUCH AS A MYELOPROLIFERATIVE NEOPLASM” (Novartis AG, priority 2011, published 2018)
Like-named read-outs stand apart in the source and are kept apart here.

Tests used:
[1] = Levels post therapy, Example B (UPLC/MS-MS, blood and tissues); type: in vivo, mouse; details: mean, N = 9; for concentration at 2 h: Balb/c, mouse, blood, read-out: Blood level 2 hr after final dose
Description: Concentrations of Compound A and Compound B in plasma and tissues were determined simultaneously by an UPLC/MS-MS assay. Tissues were homogenized in an equal volume of HPLC-Water (Water for chromatography, Merck) using the Fast Prep®-24 system (M.P. Biomedicals, Irvine, Calif., USA). Following addition of 25 μl of internal standard mixture (1 μg/ml) to analytical aliquots (25 μl) of blood or tissues homogenate, the proteins were precipitated by the addition of 200 μl acetonitrile. The supernatant were transferred in a fresh vial. After evaporation to dryness the samples were re-dissolved in 60 μl acetonitrile/water (1/1 v/v). An aliquot (5 μl) of this solution was separated on a ACQUITY UPLC BEH C18 column (Waters™ 1.7 μm particle size, 2.1×50 mm) with a mobile phase consisting of a mixture of 0.1% formic acid in water (solvent A) and 0.1% formic acid in acetonitrile (solvent B). Gradient programming was used with a flow rate of 600 μl/min. After equilibration with 95% solvent A, 5 μl of sample was injected. Following a latency period of 0.25 min., the sample was eluted with a linear gradient of 5-100% solvent B over a period of 0.65 minutes followed by a 0.35 min. hold. The column was prepared for the next sample by re-equilibrating over 0.25 min. to the starting conditions. The column eluent was directly introduced into the ion source of the triple quadrupole mass spectrometer TQDTM (Waters Corporation, Milford, Mass., USA) controlled by Masslynx™ 4.1 software. Electrospray positive ionization (ESI+) multiple reaction monitoring was used for the MS/MS detection of the analyte. Precursor to product ion transition of 307.0→m/z 186.0 for Compound A was used. Simultaneously precursor to product ion transition of 350.1→m/z 142.9 for Compound B was recorded. The limit of quantification (LOQ) for both compounds was set to 9 ng/ml and 9 ng/g for plasma and tissues, respectively (CV and overall bias less than 30%). Regression analysis and further calculations were performed using QuanLynx™ 4.1 (Micromass) and Excel™ 2007 (Microsoft). Concentrations of unknown samples were back-calculated based on the peak area ratios of analyte/IS from a calibration curve constructed using calibration samples spiked in blank blood or tissue obtained from animals treated with vehicle.

[2] = test system: Ba/F3 EpoR JAK2V617F-luc clone 8 cells; assay: Ba/F3 EpoR JAK2V617F-luc cells-driven leukemic disease mouse model, Xenogen bioluminescence; type: in vivo; details: for Fractional change in Biolux: biolux last day/first day, mean; for T/C last day (%): (treated/control)·100
Description: A study is conducted to test the efficacy of the combination of Compound A and Compound B in Scid-beige mice injected i.v. (tail vein) with 1·10^6 Ba/F3 EpoR JAK2V617F-luc clone 8 cells.
• 80 Scid-beige female mice, 18-22 g (8 groups of 7 mice, 24 excluded at time of randomization) • Cells: Ba/F3 EpoR JAK2V617F-luc clone 8 cells. • Whole body Xenogen imaging was performed on days 4, 7, 9 and 11 after cell injection. Randomization of animals into treatment groups was based on bioluminescence (BioL) on day 4 after cell injection. • The mouse model and the protocol is described by Baffert et al., Mol. Cancer Ther; 9(7), 1945, July 2010. Animal and Cell line: • Cell line: Ba/F3EpoR JAK2V617F-luc clone 8 • Gene: JAK2V617F • Cell-Nr./Injection site: 1×10e6 cells in 200 ul/tail i.v. injection • Species: mouse • Strain: CB17/C.B-Igh-l^b/GbmsTac-Prkdc^scid-lyst^bgN7, Taconic farms (complete name Taconic) • Gender: female • Age: […] • Number: 80 mice
Ba/F3 EpoR JAK2V617F-luc cells are grown in RPMI1640 supplemented with 10% FCS, 1% Glutamine, Puromycin (1 ug/mL) and Hygromycin (100 ug/mL). Cells are splited every three days (1:50) not more than two weeks before experiment. The day prior the injection, cells are grown without any antibiotics (to avoid any potential delay in cell growth in vivo).
The day of injection the cells are harvested and resuspended in HBSS buffer (10e6 cells in 200 ul). Cells are injected in tail vein using 27G tuberculin syringe. […]
Bioluminescence are recorded using the Xenogen Camera (non invasive IVIS® Imaging system, Caliper) on day 4, day 7 and 10 post cell injection under isofluran anesthesia (3-5% vol isofluran, 0.8 L/min air flow). Animals are injected i.p. with D-luciferin (Xenogen corporation, ref XR-1001), at 150 mg/kg (10 ml/kg, Nacl). Anesthetized mice are then placed in the imaging chamber for imaging 15 minutes after the luciferin injection.
Animals are randomized on day 4 and treatment started for at least 6 days based on well being of vehicle treated animals.

[3] = Combo Compound A (60 mg/kg) and B (8 mg/kg)
[4] = single agent: Comp'd B 8 mg/kg or Comp'd A 60 mg/kg
[5] = Compound A 60 mg/kg po twice a day

Row | concentration at 2 h [1, 3] | concentration at 2 h [1, 4] | BM level 2 hr after final dose [1, 3] | Liver level 2 hr after final dose [1, 3] | Spleen level 2 hr after final dose [1, 3] | BM level 2 hr after final dose [1, 4] | Liver level 2 hr after final dose [1, 4] | Spleen level 2 hr after final dose [1, 4] | Structure (SMILES) | Fractional change in Biolux ([2]; Compound B 4 mg/kg ip M/W/F (free-base equivalent)) | T/C last day (%) ([2]; Compound B 4 mg/kg ip M/W/F) | T/C last day (%) ([2]; Compound B 8 mg/kg ip M/W/F) | Fractional change in Biolux ([2]; Compound B 8 mg/kg ip M/W/F) | T/C last day (%) ([2]; Compound B 12 mg/kg ip M/W/F) | Fractional change in Biolux ([2]; Compound B 12 mg/kg ip M/W/F) | T/C last day (%) [2, 5] | Fractional change in Biolux [2, 5]
1 | 6 nM | 35 nM | 4.398 nmol/g | 0.33 nmol/g | 15.317 nmol/g | 2.704 nmol/g | 0.264 nmol/g | 10.045 nmol/g | Cc1[nH]c2ccccc2c1CCNCc1ccc(/C=C/C(=O)NO)cc1 [Compound B, N-hydroxy-3-[4-[[[2-(2-methyl-1H-indol-3-yl)-ethyl]-amino]methyl]phenyl]-2E-2-propenamide] | 481 | 27% | 20% | 351 | 11% | 204 |  | 
2 | 4110 nM | 8180 nM | 1.469 nmol/g | 3.568 nmol/g | 1.575 nmol/g | 2.223 nmol/g | 6.537 nmol/g | 2.566 nmol/g | N#CC[C@H](C1CCCC1)n1cc(-c2ncnc3[nH]ccc23)cn1 [Compound A, (R)-3-(4-(7H-pyrrolo[2,3-d]pyrimidin-4-yl)-1H-pyrazol-1-yl)-3-cyclopentylpropanenitrile] |  |  |  |  |  |  | 40% | 717
